Values of other authors in publication PMC4648373 (Cancer prevention research (Philadelphia, Pa.), 2015).
Like-named read-outs stand apart in the source and are kept apart here.

Tests used:
AR signaling = settings: cell culture models, same concentration range
[1] = rodents
[2] = healthy human subjects

CC1(C)Oc2cc3oc(=O)ccc3cc2C[C@@H]1O [DOH, decursinol]
anti-androgen (AR) signaling, cellular growth and survival activities (AR signaling): much less inhibitory

C/C=C(/C)C(=O)O[C@H]1Cc2cc3ccc(=O)oc3cc2OC1(C)C [DA, decursinol angelate]
anti-androgen (AR) signaling, cellular growth and survival activities (AR signaling): identical anti-androgen signaling and anti-proliferative activities
conversion to DOH [1]: rapidly and extensively converted to DOH
conversion to DOH [2]: extensive conversion

CC(C)=CC(=O)O[C@H]1Cc2cc3ccc(=O)oc3cc2OC1(C)C [D, Decursin]
anti-androgen (AR) signaling, cellular growth and survival activities (AR signaling): identical anti-androgen signaling and anti-proliferative activities
conversion to DOH [1]: rapidly and extensively converted to DOH
conversion to DOH [2]: extensive conversion
